Several values for one entry are separate records, joined by “and”; a condition that tells them apart may be missing. Identical values can stand only once.
Tests used:
[1] = tested on: MES-SA/Dx5; test: MTT cytotoxicity test on MES-SA/Dx5; format: cell-based, human; settings: continuous incubation over 72 h
[2] = tested on: LNCaP; test: MTT cytotoxicity test on LNCaP; format: cell-based, human; settings: continuous incubation over 72 h
[3] = tested on: MCF10A; test: MTT cytotoxicity test on MCF10A; format: cell-based; settings: continuous incubation over 72 h
[4] = tested on: A549; test: MTT cytotoxicity test on A549; format: cell-based, human; settings: continuous incubation over 72 h
[5] = tested on: Panc03.27; test: MTT cytotoxicity test on Panc03.27; format: cell-based, human; settings: continuous incubation over 72 h
[6] = tested on: HT-1080; test: MTT cytotoxicity test on HT-1080; format: cell-based, human; settings: continuous incubation over 72 h
[7] = tested on: MDA-MB-231; test: MTT cytotoxicity test on MDA-MB-231; format: cell-based, human; settings: continuous incubation over 72 h
[8] = tested on: HUV-EC-C; test: MTT cytotoxicity test on HUV-EC-C (healthy control cells); format: cell-based, human; settings: continuous incubation over 72 h
Excerpt: (§1) MTT assay is a colorimetric assay used to measure proliferation, viability and cytotoxicity of cells. It consists in decomposition of a yellow tetrazolium salt MTT (4,5-dimethyl-2-thiazolyl)-2,5-diphenyltetrazolium bromide) to the water-insoluble purple dye formazan by mitochondrial enzyme succinate-tetrazolium reductase 1. MTT reduction occurs only in living cells. Data analysis consists in determining IC50 concentration of the protein (in ng/ml), at which the 50% reduction in the number of cells occurs in the population treated compared to control cells. Results were analyzed using GraphPad Prism 5.0 software. The test was performed according to the literature descriptions (Celis, J E, (1998). Cell Biology, a Laboratory Handbook, second edition, Academic Press, San Diego; Yang, Y., Koh, L W, Tsai, J H., (2004); Involvement of viral and chemical factors with oral cancer in Taiwan, Jpn J Clin Oncol, 34 (4), 176-183).
Cell culture medium was diluted to a defined density (10^4-10^5 cells per 100 μl). Then 100 μl of appropriately diluted cell suspension was applied to a 96-well plate in triplicates. […] After stirring, the absorbance was measured at 570 nm (reference filter 690 nm). […]

[9] = tested on: Caki-1; test: MTT cytotoxicity test on Caki-1; format: cell-based, human; settings: continuous incubation over 72 h
[10] = tested on: NCI-H460; test: MTT cytotoxicity test on NCI-H460; format: cell-based, human; settings: continuous incubation over 72 h
[11] = tested on: MDA-MB-435S; test: MTT cytotoxicity test on MDA-MB-435S; format: cell-based, human; settings: continuous incubation over 72 h
[12] = tested on: UM-UC-3; test: MTT cytotoxicity test on UM-UC-3; format: cell-based, human; settings: continuous incubation over 72 h
[13] = tested on: A498; test: MTT cytotoxicity test on A498; format: cell-based, human; settings: continuous incubation over 72 h
[14] = tested on: MES-SA/Mx2; test: MTT cytotoxicity test on MES-SA/Mx2; format: cell-based, human; settings: continuous incubation over 72 h
[15] = tested on: HT 144; test: MTT cytotoxicity test on HT 144; format: cell-based, human; settings: continuous incubation over 72 h
[16] = tested on: MCF-7; test: MTT cytotoxicity test on MCF-7; format: cell-based, human; settings: continuous incubation over 72 h
[17] = tested on: SK-MES-1; test: MTT cytotoxicity test on SK-MES-1; format: cell-based, human; settings: continuous incubation over 72 h
[18] = tested on: JURKAT A3; test: Cytotoxicity test on JURKAT A3 (nonadherent cells); format: cell-based, human; settings: continuous incubation over 72 h, test MTT
Excerpt: as §1
Cell culture medium was diluted to a defined density (10^4-10^5 cells per 100 μl). […] After stirring, the absorbance was measured at 570 nm (reference filter 690 nm).
EZ4U (Biomedica) test was used for testing cytotoxic activity of the proteins in nonadherent cell lines. […] On this basis IC50 values were determined (as an average of two independent experiments) using the GraphPad Prism 5 software. […]

[19] = tested on: OV-CAR-3; test: MTT cytotoxicity test on OV-CAR-3; format: cell-based, human; settings: continuous incubation over 72 h
[20] = tested on: HCT116; test: MTT cytotoxicity test on HCT116; format: cell-based, human; settings: continuous incubation over 72 h
[21] = tested on: COLO 205; test: MTT cytotoxicity test on COLO 205; format: cell-based, human; settings: continuous incubation over 72 h
[22] = tested on: SK-HEP-1; test: MTT cytotoxicity test on SK-HEP-1; format: cell-based, human; settings: continuous incubation over 72 h
[23] = tested on: SW 620; test: MTT cytotoxicity test on SW 620; format: cell-based, human; settings: continuous incubation over 72 h
[24] = tested on: SK-OV-3; test: MTT cytotoxicity test on SK-OV-3; format: cell-based, human; settings: continuous incubation over 72 h
[25] = tested on: BxPC3; test: MTT cytotoxicity test on BxPC3; format: cell-based, human; settings: continuous incubation over 72 h
[26] = tested on: MES-SA; test: MTT cytotoxicity test on MES-SA; format: cell-based, human; settings: continuous incubation over 72 h
[27] = tested on: PLC/PRF/5; test: MTT cytotoxicity test on PLC/PRF/5; format: cell-based, human; settings: continuous incubation over 72 h
[28] = tested on: PANC-1; test: MTT cytotoxicity test on PANC-1; format: cell-based, human; settings: continuous incubation over 72 h
[29] = tested on: HepG2; test: MTT cytotoxicity test on HepG2; format: cell-based, human; settings: continuous incubation over 72 h
[30] = tested on: 293; test: MTT cytotoxicity test on 293; format: cell-based, human; settings: continuous incubation over 72 h
[31] = tested on: pancreatic carcinoma MIA PaCa-2; test: Pancreas cancer model, Experiment B: MIA PaCa-2 xenograft; format: in vivo, Crl:SHO-PrkdcscidHrhr mice; settings: 50 mg/kg i.p. six times every second day, 61th day
Method: (§2) Tumor size was measured using electronic calliper, tumor volume was calculated using the formula: (a^2×b)/2, where a=shorter diagonal of the tumor (mm) and b=longer diagonal of the tumor (mm). Inhibition of tumor growth was calculated using the formula:
(§3) TGI[%](Tumor growth inhibition)=(WT/WC)×100−100%
(§4) wherein WT is the average tumor volume in the treatment group, and WC is the average tumor volume in the control group.
On day 0 Crl:SHO-Prkdc^scidHr^hr mice were grafted subcutaneously (s.c.) in the right flank region with 5×10^6 of MIA PaCa-2 cells suspended in 0.1 ml of 3:1 mixture HBSS buffer:Matrigel using syringe with a 0.5×25 mm needle (Bogmark). When tumors reached the size of 60-398 mm^3 (day 20), mice were randomized to obtain the average size of tumors in the group of ˜170 mm^3 and assigned to treatment groups. The treatment groups were administered with the preparations of fusion protein of the invention of Ex. 16^b (50 mg/kg) and rhTRAIL114-281 (50 mg/kg) as a comparison and reference compound gemcytabine (Gemzar, Eli Lilly) (50 mg/kg). The preparations were administered intravenously (i.v.) six times every second day, gemcytabine was applied intraperitoneally (i.p.) in the same schedule. The control group received formulation buffer.
When a therapeutic group reached the average tumor size of ˜1000 mm^3, mice were sacrificed by the cervical dislocation.

[32] = tested on: human liver cancer HepG2; test: Liver cancer model, Experiment A: HepG2 xenograft; format: in vivo, Crl:SHO-PrkdcscidHrhr mice; settings: 20 mg/kg i.p.
Method: as §2, §3, §4
On day 0 Crl:SHO-Prkdc^scidHr^hr mice were grafted subcutaneously (s.c.) in the right flank region with 7×10^6 of HepG2 cells suspended in 0.1 ml of the 3:1 mixture HBSS buffer:Matrigel using syringe with a 0.5×25 mm needle (Bogmark). When tumors reached the size of 64-529 mm^3 (day 25), mice were randomized to obtain the average size of tumors in the group of −230 mm^3 and assigned to treatment groups. The treatment groups were administered with the preparations of fusion protein of the invention of Ex. 16^b (80 mg/kg) and rhTRAIL114-281 (50 mg/kg) as a comparison and reference compound 5-FU (5-Fluorouracil, Sigma-Aldrich) (20 mg/kg). The preparations were administered intravenously (i.v.) six times every second day, 5-FU was applied intraperitoneally (i.p.). The control group received formulation buffer.
When the therapeutic group reached the average tumor size of ˜1000 mm^3, mice were sacrificed by cervical dislocation.

[33] = tested on: human liver cancer PLC/PRF/5; test: Liver cancer model, Experiment B: PLC/PRF/5 xenograft; format: in vivo, Crl:SHO-PrkdcscidHrhr mice; settings: 30 mg/kg i.p., schedule (q1dx5)×2, 43th day
Method: as §2, §3, §4
On day 0 Crl:SHO-Prkdc^scidHr^hr mice were grafted subcutaneously (s.c.) in the right flank region with 7×10^6 of PLC/PRF/5 cells suspended in 0.1 ml of the 3:1 mixture HBSS buffer:Matrigel using syringe with a 0.5×25 mm needle (Bogmark). When tumors reached the size of 72-536 mm^3 (day 29), mice were randomized to obtain the average size of tumors in the group of ˜205 mm^3 and assigned to treatment groups. The treatment groups were administered with the preparations of fusion protein of the invention of Ex. 16^b (50 mg/kg) and rhTRAIL114-281 (50 mg/kg) as a comparison and reference compound 5-FU (5-Fluorouracil, Sigma-Aldrich) (30 mg/kg). The preparations were administered intravenously (i.v.) six times every second day, except 5-FU, which was applied intraperitoneally (i.p.) in the schedule (q1dx5)×2. The control group received formulation buffer.
When an experimental group reached the average tumor size of ˜1000 mm^3, mice were sacrificed by cervical dislocation.

rhTRAIL95-281: TRAIL comparator protein as labelled in cytotoxicity Tables 4-4d (hTRAIL fragment 95-281)
IC50 [1]: 0.02915 µg/mL
IC50 ([1]; listed as TRAIL 95-281): 0.02759 µg/mL
IC50 [2]: 2.052 µg/mL
IC50 [3]: >10 µg/mL
IC50 ([3]; listed as TRAIL 95-281): >2 µg/mL
IC50 [4]: >10 µg/mL
IC50 ([4]; listed as TRAIL 95-281): >2 µg/mL
IC50 [5]: 0.315 µg/mL
IC50 [6]: >2 µg/mL
IC50 [7]: >2 µg/mL
IC50 [8]: >2 µg/mL
IC50 [9]: 0.01342 µg/mL
IC50 [10]: 5.889 µg/mL
IC50 ([10]; listed as TRAIL 95-281): 0.438 µg/mL
IC50 [11]: >2 µg/mL
IC50 [12]: 2.242 µg/mL
IC50 [13]: 1.611 µg/mL
IC50 [14]: 0.03895 µg/mL
IC50 ([15]; listed as TRAIL 95-281): 1.134 µg/mL
IC50 ([15]; listed as rhTRAIL 95-281): 1.73 µg/mL
IC50 [16]: >2 µg/mL
IC50 [17]: 0.03935 µg/mL
IC50 ([17]; listed as TRAIL 95-281): 0.1007 µg/mL
IC50 [18]: >10 µg/mL
IC50 ([19]; listed as TRAIL 95-281): 0.963 µg/mL
IC50 ([19]; listed as rhTRAIL 95-281): 0.963 µg/mL
IC50 [20]: 7.557 µg/mL
IC50 ([20]; listed as TRAIL 95-281): >2 µg/mL
IC50 [21]: 0.05902 µg/mL
IC50 [22]: >2 µg/mL
IC50 [23]: >2 µg/mL
IC50 [24]: >2 µg/mL
IC50 [25]: 0.06471 µg/mL and 0.0606 µg/mL
IC50 [26]: >10 µg/mL
IC50 ([26]; listed as TRAIL 95-281): >2 µg/mL
IC50 [27]: >9 µg/mL
IC50 ([27]; listed as TRAIL 95-281): >2 µg/mL
IC50 [28]: >10 µg/mL
IC50 ([28]; listed as TRAIL 95-281): >2 µg/mL
IC50 ([29]; listed as TRAIL 95-281): >2 µg/mL
IC50 ([29]; listed as rhTRAIL 95-281): >10 µg/mL
IC50 [30]: >10 µg/mL

Nc1ccn([C@@H]2O[C@H](CO)[C@@H](O)C2(F)F)c(=O)n1 [gemcytabine]
TGI (tumor growth inhibition) relative to the control [31]: 42.6%

O=c1[nH]cc(F)c(=O)[nH]1 [5-FU, 5-Fluorouracil]
efficacy against HepG2 tumors [32]: didn't show any efficacy
TGI (tumor growth inhibition) relative to the control [33]: 32.2%

Reference: patent US20140377216A1, “ANTICANCER FUSION PROTEIN” (ADAMED SP. Z.O.O., priority 2011, published 2014)
